Data: ChEMBL document CHEMBL3826970, “Design, synthesis, anti-tumor activity, and molecular modeling of quinazoline and pyrido[2,3-d]pyrimidine derivatives targeting epidermal growth factor receptor” (Eur J Med Chem, 2016)

How the values were obtained:
[1] = Antiproliferative activity against human BT474 cells after 72 hrs by MTT assay; format: functional, cell-based; conditions: BT-474, 72 h
MDA-MB-231 = assay: cells; format: functional, cell-based; conditions: Homo sapiens, MDA-MB-231, 72 h;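 further: antiproliferative effect read out with the MTT assay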
[2] = target: T1, Epidermal growth factor receptor (Homo sapiens, UniProt P00533); conditions: at 1 µM
T1 sequence (P00533 whole entry): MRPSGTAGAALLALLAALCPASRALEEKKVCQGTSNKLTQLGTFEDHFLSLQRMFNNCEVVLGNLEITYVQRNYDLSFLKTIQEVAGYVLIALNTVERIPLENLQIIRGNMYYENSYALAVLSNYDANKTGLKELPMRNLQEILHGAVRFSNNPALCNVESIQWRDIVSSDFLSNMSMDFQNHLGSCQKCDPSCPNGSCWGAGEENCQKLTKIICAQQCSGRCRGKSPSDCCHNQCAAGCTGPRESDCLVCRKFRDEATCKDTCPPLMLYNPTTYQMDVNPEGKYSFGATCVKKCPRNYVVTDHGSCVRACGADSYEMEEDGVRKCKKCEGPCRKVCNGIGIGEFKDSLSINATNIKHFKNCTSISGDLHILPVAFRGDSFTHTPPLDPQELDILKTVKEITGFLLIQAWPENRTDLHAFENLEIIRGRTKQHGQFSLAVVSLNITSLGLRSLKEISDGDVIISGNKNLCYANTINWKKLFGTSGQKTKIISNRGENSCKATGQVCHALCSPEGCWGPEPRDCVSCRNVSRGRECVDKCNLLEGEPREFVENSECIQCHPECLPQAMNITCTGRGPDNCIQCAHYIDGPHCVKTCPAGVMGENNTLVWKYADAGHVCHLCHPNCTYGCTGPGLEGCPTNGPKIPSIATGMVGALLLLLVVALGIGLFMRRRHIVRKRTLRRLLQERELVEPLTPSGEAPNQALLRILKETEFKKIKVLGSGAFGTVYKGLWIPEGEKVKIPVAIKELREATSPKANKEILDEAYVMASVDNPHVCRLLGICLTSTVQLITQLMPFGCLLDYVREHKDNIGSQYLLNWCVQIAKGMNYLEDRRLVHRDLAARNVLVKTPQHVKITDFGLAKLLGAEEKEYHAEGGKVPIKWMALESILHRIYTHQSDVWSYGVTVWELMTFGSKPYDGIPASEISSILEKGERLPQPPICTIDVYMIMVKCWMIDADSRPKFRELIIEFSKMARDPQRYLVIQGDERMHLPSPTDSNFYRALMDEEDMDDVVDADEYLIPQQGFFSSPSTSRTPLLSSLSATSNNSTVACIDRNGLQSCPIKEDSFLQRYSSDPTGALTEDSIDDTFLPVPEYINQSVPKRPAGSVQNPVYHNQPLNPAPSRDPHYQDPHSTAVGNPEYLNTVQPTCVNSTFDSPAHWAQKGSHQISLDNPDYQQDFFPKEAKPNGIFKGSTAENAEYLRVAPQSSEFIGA

MCF7 = assay: cells; format: functional, cell-based; conditions: Homo sapiens, MCF7, 72 h;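 further: antiproliferative effect quantified with an MTT readout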
A549 = assay: cells; format: functional, cell-based; conditions: Homo sapiens, A549, 72 h;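 further: antiproliferative effect read out by MTT assay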
Description: Antiproliferative activity against human A549 cells after 72 hrs by MTT assay

SK-BR-3 = assay: cells; format: functional, cell-based; conditions: Homo sapiens, SK-BR-3, 72 h;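 further: antiproliferative effect determined with an MTT read-out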
Description: Antiproliferative activity against human SK-BR-3 cells after 72 hrs by MTT assay

[3] = target: Receptor tyrosine-protein kinase erbB-4 (Homo sapiens, UniProt Q15303); assay: Inhibition of cytoplasmic GST-tagged human ErbB4 expressed in baculovirus system by z-lyte assay
Sequence of Receptor tyrosine-protein kinase erbB-4 (Q15303 whole entry): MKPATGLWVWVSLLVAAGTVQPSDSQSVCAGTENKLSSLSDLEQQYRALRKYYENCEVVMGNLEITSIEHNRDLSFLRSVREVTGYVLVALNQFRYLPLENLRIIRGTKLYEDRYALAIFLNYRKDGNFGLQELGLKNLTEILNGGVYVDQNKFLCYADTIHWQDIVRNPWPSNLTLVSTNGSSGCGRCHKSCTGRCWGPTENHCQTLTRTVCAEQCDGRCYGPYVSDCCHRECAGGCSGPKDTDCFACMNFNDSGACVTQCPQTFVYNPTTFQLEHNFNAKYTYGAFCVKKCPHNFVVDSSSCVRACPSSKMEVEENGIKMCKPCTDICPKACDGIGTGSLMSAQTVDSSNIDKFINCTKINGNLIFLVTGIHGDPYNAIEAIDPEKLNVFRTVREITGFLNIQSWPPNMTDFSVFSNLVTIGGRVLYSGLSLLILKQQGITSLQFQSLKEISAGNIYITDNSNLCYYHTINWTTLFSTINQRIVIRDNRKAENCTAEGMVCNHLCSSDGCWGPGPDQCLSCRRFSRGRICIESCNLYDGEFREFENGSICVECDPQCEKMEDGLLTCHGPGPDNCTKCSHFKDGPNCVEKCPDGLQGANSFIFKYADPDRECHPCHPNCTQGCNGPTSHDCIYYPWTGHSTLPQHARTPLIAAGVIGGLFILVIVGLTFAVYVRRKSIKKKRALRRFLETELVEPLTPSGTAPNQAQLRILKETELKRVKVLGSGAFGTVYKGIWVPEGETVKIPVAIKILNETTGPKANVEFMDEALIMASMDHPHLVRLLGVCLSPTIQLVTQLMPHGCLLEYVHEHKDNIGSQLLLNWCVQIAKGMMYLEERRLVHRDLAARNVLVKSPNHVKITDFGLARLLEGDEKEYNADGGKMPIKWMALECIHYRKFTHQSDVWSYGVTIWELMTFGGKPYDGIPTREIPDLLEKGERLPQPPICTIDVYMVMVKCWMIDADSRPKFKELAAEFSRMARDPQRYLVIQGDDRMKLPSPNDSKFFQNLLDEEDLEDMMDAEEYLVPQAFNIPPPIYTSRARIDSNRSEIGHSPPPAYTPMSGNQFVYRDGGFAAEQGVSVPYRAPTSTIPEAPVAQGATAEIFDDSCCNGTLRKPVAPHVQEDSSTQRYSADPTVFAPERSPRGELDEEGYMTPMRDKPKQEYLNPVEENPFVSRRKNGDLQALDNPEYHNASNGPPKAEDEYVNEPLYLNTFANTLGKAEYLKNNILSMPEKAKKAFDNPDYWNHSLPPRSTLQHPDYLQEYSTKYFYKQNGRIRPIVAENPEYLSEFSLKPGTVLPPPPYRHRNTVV

[4] = target: Epidermal growth factor receptor (Homo sapiens, UniProt P00533, L858R)
Sequence of Epidermal growth factor receptor (Homo sapiens, UniProt P00533, L858R) (P00533 25-1210 L858R limits assumed): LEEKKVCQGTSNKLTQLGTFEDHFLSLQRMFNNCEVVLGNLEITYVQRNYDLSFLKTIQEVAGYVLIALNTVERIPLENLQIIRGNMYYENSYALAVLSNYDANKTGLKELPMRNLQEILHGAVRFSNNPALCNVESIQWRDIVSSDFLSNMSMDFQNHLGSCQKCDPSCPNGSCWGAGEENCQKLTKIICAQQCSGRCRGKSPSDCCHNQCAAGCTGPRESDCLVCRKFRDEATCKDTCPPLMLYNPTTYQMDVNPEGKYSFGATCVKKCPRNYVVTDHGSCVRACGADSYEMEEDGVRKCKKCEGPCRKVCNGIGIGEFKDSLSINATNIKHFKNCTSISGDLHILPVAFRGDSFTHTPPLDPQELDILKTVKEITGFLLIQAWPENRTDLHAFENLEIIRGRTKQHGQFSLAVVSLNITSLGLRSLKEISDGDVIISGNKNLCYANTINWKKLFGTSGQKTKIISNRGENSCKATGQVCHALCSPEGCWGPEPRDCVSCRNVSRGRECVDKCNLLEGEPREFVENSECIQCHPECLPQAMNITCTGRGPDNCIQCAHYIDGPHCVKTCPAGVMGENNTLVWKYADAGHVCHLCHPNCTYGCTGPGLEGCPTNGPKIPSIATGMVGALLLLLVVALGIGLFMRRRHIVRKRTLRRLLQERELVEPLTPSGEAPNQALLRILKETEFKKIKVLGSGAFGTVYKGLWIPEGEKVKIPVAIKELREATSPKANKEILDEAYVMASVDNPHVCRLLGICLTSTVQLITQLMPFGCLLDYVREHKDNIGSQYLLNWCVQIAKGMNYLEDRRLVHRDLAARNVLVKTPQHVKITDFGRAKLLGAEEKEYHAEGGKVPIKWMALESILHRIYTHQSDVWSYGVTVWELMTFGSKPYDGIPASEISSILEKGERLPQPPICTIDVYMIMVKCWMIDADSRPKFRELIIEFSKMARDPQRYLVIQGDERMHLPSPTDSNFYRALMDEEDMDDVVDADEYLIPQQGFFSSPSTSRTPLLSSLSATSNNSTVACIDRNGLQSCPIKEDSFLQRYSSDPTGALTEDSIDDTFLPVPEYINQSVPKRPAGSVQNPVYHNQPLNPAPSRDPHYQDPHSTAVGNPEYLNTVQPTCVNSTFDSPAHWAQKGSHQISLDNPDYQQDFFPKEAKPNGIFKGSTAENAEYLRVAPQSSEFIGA
Description: Inhibition of cytoplasmic GST-tagged human recombinant EGFR L858R mutant expressed in baculovirus system by z-lyte assay

[5] = target: T1, Epidermal growth factor receptor
Description: Inhibition of cytoplasmic GST-tagged human recombinant EGFR expressed in baculovirus system by z-lyte assay

[6] = target: Receptor tyrosine-protein kinase erbB-2 (Homo sapiens, UniProt P04626); assay: Inhibition of cytoplasmic His-tagged human ErbB2 expressed in baculovirus system by z-lyte assay
[7] = target: Epidermal growth factor receptor (Homo sapiens, UniProt P00533, L858R/T790M); assay: Inhibition of cytoplasmic GST-tagged human recombinant EGFR L858R/T790M double mutant (668-1210 residues) expressed in baculovirus system by z-lyte assay
Sequence of Epidermal growth factor receptor (Homo sapiens, UniProt P00533, L858R/T790M) (P00533 25-1210 T790M/L858R limits assumed): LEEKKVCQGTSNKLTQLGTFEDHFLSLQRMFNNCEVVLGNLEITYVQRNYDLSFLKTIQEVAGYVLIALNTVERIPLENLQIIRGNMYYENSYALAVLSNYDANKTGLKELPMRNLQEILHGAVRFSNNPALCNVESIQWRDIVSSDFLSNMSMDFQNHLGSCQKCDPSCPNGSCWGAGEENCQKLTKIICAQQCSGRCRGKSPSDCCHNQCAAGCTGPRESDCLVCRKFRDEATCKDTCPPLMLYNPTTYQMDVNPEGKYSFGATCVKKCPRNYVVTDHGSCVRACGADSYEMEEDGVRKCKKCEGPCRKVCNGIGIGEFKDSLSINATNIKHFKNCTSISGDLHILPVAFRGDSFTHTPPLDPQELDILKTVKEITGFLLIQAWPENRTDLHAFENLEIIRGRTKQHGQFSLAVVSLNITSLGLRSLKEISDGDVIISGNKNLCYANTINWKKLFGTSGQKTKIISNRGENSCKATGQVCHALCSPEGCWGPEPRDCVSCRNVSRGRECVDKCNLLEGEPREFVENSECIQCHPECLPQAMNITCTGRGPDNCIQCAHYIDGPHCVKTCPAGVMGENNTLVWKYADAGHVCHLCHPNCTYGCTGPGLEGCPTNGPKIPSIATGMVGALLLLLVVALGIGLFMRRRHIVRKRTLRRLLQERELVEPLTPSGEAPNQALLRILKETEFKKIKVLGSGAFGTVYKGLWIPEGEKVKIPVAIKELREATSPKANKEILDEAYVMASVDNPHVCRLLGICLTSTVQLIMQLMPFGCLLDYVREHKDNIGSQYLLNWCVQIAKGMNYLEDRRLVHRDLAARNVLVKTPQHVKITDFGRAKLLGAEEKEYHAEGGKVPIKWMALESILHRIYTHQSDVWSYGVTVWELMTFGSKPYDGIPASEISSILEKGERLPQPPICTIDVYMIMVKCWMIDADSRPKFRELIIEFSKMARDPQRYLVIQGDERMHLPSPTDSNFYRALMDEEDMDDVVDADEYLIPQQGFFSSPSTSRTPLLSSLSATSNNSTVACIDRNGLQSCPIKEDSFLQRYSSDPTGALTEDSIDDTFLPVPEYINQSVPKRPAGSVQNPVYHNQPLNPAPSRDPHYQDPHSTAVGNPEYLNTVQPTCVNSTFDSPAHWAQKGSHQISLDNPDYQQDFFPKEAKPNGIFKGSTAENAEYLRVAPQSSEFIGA

IC50 (MDA-MB-231) [µM] | inhibition [2] [%] | IC50 (MCF7) [µM] | IC50 (A549) [µM] | IC50 (SK-BR-3) [µM] | Structure (SMILES) | IC50 [1] [µM] | IC50 [3] [µM] | IC50 [4] [µM] | IC50 [5] [µM] | IC50 [6] [µM] | IC50 [7] [µM]
30 | 11 | 22.6 | 28.8 | 27.2 | CC(Oc1ncnc2ccc(-c3cnn(C)c3)cc12)c1c(Cl)ccc(F)c1Cl (stereo not drawn) | 45.6 | – | – | – | – | –
> 100 | 18 | > 100 | > 100 | > 100 | COc1cccc(CNc2ncnc3ncc(-c4cnn(C)c4)cc23)c1 | > 100 | – | – | – | – | –
7.96 | 12 | 2.87 | > 100 | 7.14 | CC(Nc1nc(N)nc2ccc(-c3cnn(C)c3)cc12)c1c(Cl)ccc(F)c1Cl (stereo not drawn) | 7.12 | – | – | – | – | –
7 | 7 | 1.24 | 9.49 | 7.12 | CC(Oc1nc(N)nc2ccc(-c3cnn(C4CCNCC4)c3)cc12)c1c(Cl)ccc(F)c1Cl (stereo not drawn) | 3 | – | – | – | – | –
12.6 | 61 | 2.65 | 7 | 4.39 | CC(Nc1ncnc2ccc(-c3cnn(C4CCNCC4)c3)cc12)c1c(Cl)ccc(F)c1Cl (stereo not drawn) | 8.13 | – | – | – | – | –
7.11 | 17 | 1.63 | 29.7 | 17.7 | CC(Nc1ncnc2ncc(-c3cnn(C4CCNCC4)c3)cc12)c1c(Cl)ccc(F)c1Cl (stereo not drawn) | 13.5 | – | – | – | – | –
> 100 | 9 | > 100 | > 100 | > 100 | CC(Nc1ncnc2ncc(-c3cnn(C)c3)cc12)c1c(Cl)ccc(F)c1Cl (stereo not drawn) | > 100 | – | – | – | – | –
6.77 | 52 | 2.67 | 6.75 | 2.5 | CC(Oc1ncnc2ccc(-c3cnn(C4CCNCC4)c3)cc12)c1c(Cl)ccc(F)c1Cl (stereo not drawn) | 4.14 | – | – | – | – | –
4.48 | 17 | 2.23 | 8.8 | 1.58 | CC(Nc1nc(N)nc2ccc(-c3cnn(C4CCNCC4)c3)cc12)c1c(Cl)ccc(F)c1Cl (stereo not drawn) | 5.1 | – | – | – | – | –
> 100 | 0 | > 100 | > 100 | > 100 | CC(Nc1ncnc2ncc(-c3cnn(C)c3)cc12)c1ccncc1 (stereo not drawn) | > 100 | – | – | – | – | –

Continued, compound first:

Structure (SMILES) | IC50 (MDA-MB-231) [µM] | inhibition [2] [%] | IC50 (MCF7) [µM] | IC50 (A549) [µM] | IC50 (SK-BR-3) [µM] | IC50 [1] [µM] | IC50 [3] [µM] | IC50 [4] [µM] | IC50 [5] [µM] | IC50 [6] [µM] | IC50 [7] [µM]
c1cnc2ccc(Nc3ncnc4ccc(-c5cnn(C6CCNCC6)c5)cc34)cc2c1 | 30.3 | 96 | 61.9 | 32 | 2.66 | 12.8 | 1.1 | 0.035 | 0.0282 | 1.35 | > 1
Cn1cc(-c2ccc3ncnc(Nc4ccc(F)c(Cl)c4)c3c2)cn1 | 62.6 | 101 | 52.2 | > 100 | 3.1 | 5.26 | 0.801 | 0.0035 | 0.00297 | 0.676 | > 1
COc1cccc(CNc2ncnc3ccc(-c4cnn(C)c4)cc23)c1 | 28.5 | 67 | 40 | 48.9 | 36 | 30.4 | – | – | – | – | –
Fc1ccc(Nc2ncnc3ccc(-c4cnn(C5CCNCC5)c4)cc23)cc1Cl | 28.4 | 99 | 31.3 | 29.4 | 3.74 | 15.2 | 1.6 | 0.0391 | 0.0319 | 1.2 | > 1
C#Cc1cccc(Nc2ncnc3ccc(-c4cnn(C)c4)cc23)c1 | 16.9 | 102 | 11.4 | 9.86 | 5.87 | 5.68 | 0.782 | 0.00425 | 0.00358 | 0.59 | > 1
Cn1cc(-c2cnc3ncnc(NCc4cccc([N+](=O)[O-])c4)c3c2)cn1 | > 100 | 30 | > 100 | > 100 | > 100 | > 100 | – | – | – | – | –
Cn1cc(-c2ccc3ncnc(Oc4ccc5ncccc5c4)c3c2)cn1 | 16.5 | 43 | 22 | 26.6 | 14.4 | 24.3 | – | – | – | – | –
Cn1cc(-c2ccc3ncnc(Nc4ccc5ncccc5c4)c3c2)cn1 | 26.3 | 101 | 0.49 | 1.38 | 0.064 | 10.9 | 0.93 | 0.108 | 0.0441 | 0.874 | > 1
